≈ marks a conversion by molar mass, not a printed value. Where “and” joins values, the source holds several entries; their conditions need not be identical. Equal values may be shown once. Read-outs that look alike come from different tables or passages of the source.
Experiments:
Type in all cases: cell-based
[1] = tested on: Staphylococcus aureus fluoroquinolone-susceptible; test: MIC, 25 ocular isolates, broth microdilution (Example 8)
Method: • Mueller-Hinton Broth in tubes was inoculated with 25 ocular isolates of Staphylococcus aureus fluoroquinolone-susceptible, Staphylococcus aureus fluoroquinolone-resistant, Staphylococcus epidermidis (Coagulase-negative Staphylococcus) fluoroquinolone-susceptible, Staphylococcus epidermidis (Coagulase-negative Staphylococcus) fluoroquinolone-resistant, Pseudomonas aeruginosa and Serratia marcescens, plus two controls (Staphylococcus aureus and E. coli) and incubated at 37° C. overnight on a shaker set at 250 rpm.
(§1) On the day of testing, a 640 μg/ml (1280 μg/ml for Serratia marcescens and Pseudomonas aeruginosa) concentration was prepared from a 1% stock solution in 0.01% acetic acid, 0.2% BSA in polypropylene tubes.
(§2) Serial doubling dilutions in 0.01% acetic acid, 0.2% BSA in 96 well polypropylene plates, which are used as reservoirs for the inoculation of the test plates, were carried out to obtain serial dilutions of test agents at 10 times the required test concentrations: 640, 320, 160, 80, 40, 20, 10, 5, 2.5, 1.25, and 0.625 μg/ml (1280, 640, 320, 160, 80, 40, 20, 10, 5, 2.5, and 1.25 μg/ml for Serratia marcescens and Pseudomonas aeruginosa).
(§3) Ten μl of diluted 10×test agents was added to each well of one row of the 96 well polypropylene plates from column 2 to column 12 (column 1 is a control for bacteria alone, with no peptide). Test agent concentrations in columns 2-12 were as follows: 64, 32, 16, 8, 4, 2, 1, 0.5, 0.25, 0.125, and 0.0625 μg/ml (128, 64, 32, 16, 8, 4, 2, 1, 0.5, 0.25, and 0.125 μg/ml for Serratia marcescens and Pseudomonas aeruginosa). The same peptide was in each of the 8 rows. One plate contained dilutions of one test agent and 8 bacterial isolates.
On the day of testing, the overnight bacterial broth cultures of Staphylococcus aureus fluoroquinolone-susceptible, Staphylococcus aureus fluoroquinolone-resistant, Staphylococcus epidermidis (Coagulase-negative Staphylococcus) fluoroquinolone-susceptible, Staphylococcus epidermidis (Coagulase-negative Staphylococcus) fluoroquinolone-resistant, Serratia marcescens, and Pseudomonas aeruginosa, plus two controls (Staphylococcus aureus and E. coli) were diluted in 5 ml of trypticase soy broth to yield turbidity equal to a 0.5 McFarland standard. The final inoculum for MIC testing for Staphylococcus aureus fluoroquinolone-susceptible, Staphylococcus aureus fluoroquinolone-resistant, Staphylococcus epidermidis (Coagulase-negative Staphylococcus) fluoroquinolone-susceptible, Staphylococcus epidermidis (Coagulase-negative Staphylococcus) fluoroquinolone-resistant, Serratia marcescens, and Pseudomonas aeruginosa was achieved by placing 0.05 ml of the turbidity adjusted sample to 5 ml of Mueller-Hinton broth.
(§4) Ninety μl of the bacterial suspensions was dispensed in each well from column 1 to column 12. Each bacterial isolate was placed in one row of a 96 well polypropylene plate containing the test agents. The plates were placed on shaker at 15 minutes at room temperature, and then incubated at 37° C. overnight. MICs were determined visually as the lowest concentration of drug that inhibits visible bacterial growth.

Streptococcus pneumoniae = test: as above
Method: Mueller-Hinton Broth supplemented with 2% lysed horse blood in tubes was inoculated with 25 ocular isolates of Streptococcus pneumoniae, Streptococcus viridans group, and Moraxella species (including Moraxella catarrhalis) plus two controls (Staphylococcus aureus and E. coli) and incubated at 37° C. overnight. Additionally, Mueller-Hinton Broth in tubes was inoculated with two controls (Staphylococcus aureus and E. coli) and incubated at 37° C. overnight on a shaker set at 250 rpm.
as §1, §2, §3
On the day of testing, the overnight bacterial broth cultures of Streptococcus pneumoniae, Streptococcus viridans and Moraxella species (including Moraxella catarrhalis) plus two controls (Staphylococcus aureus and E. coli) were diluted in 5 ml of trypticase soy broth to yield turbidity equal to a 0.5 McFarland standard. The final inoculum for MIC testing for Streptococcus pneumoniae, Streptococcus viridans and Moraxella species (including Moraxella catarrhalis) was achieved by placing 0.1 ml of the turbidity adjusted sample to 5 ml of Mueller-Hinton broth containing 2% lysed horse red blood cells.
as §4

E. faecalis ATCC 29212 = test: MIC, laboratory strains (Example 8)

N=C(N)NCCCCC(=O)Nc1cc(C(F)(F)F)cc(NC(=O)c2cc(C(=O)Nc3cc(C(F)(F)F)cc(NC(=O)CCCCNC(=N)N)c3O[C@@H]3CCNC3)ncn2)c1O[C@@H]1CCNC1 [Oligomer 4]
MIC, sorted list for MIC50 and MIC90 Determinations (QSSA-A) ([1]; 25 isolates sorted ascending, Row 1-25, in µg/mL): 0.250 and 0.500
MIC50 ([1]; 25 isolates, Row 13): 0.25 µg/mL (≈ 0.267 µM)
MIC90 ([1]; 25 isolates, Row 22): 0.5 µg/mL (≈ 0.534 µM)
Range of MICs ([1]; 25 isolates, Summary of Results): 0.125 to 0.5 µg/mL
MIC ([1]; Staphylococcus aureus, 25 ocular isolates, read-out: Median MIC): ≤ 0.25 µg/mL
MIC ([1]; Staphylococcus aureus, isolate 1—E402, read-out: MIC): 0.25 µg/mL (≈ 0.267 µM)
MIC ([1]; Staphylococcus aureus, isolate 2—E1512, read-out: MIC): 0.25 µg/mL (≈ 0.267 µM)
MIC ([1]; Staphylococcus aureus, isolate 3—E253, read-out: MIC): 0.25 µg/mL (≈ 0.267 µM)
MIC ([1]; Staphylococcus aureus, isolate 4—K1518, read-out: MIC): 0.25 µg/mL (≈ 0.267 µM)
MIC ([1]; Staphylococcus aureus, isolate 5—K1525, read-out: MIC): 0.125 µg/mL (≈ 0.133 µM)
MIC ([1]; Staphylococcus aureus, isolate 6—K1663, read-out: MIC): 0.5 µg/mL (≈ 0.534 µM)
MIC ([1]; Staphylococcus aureus, isolate 7—K1648, read-out: MIC): 0.25 µg/mL (≈ 0.267 µM)
MIC ([1]; Staphylococcus aureus, isolate 8—K1646, read-out: MIC): 0.25 µg/mL (≈ 0.267 µM)
MIC ([1]; Staphylococcus aureus, isolate 9—K1642, read-out: MIC): 0.5 µg/mL (≈ 0.534 µM)
MIC ([1]; Staphylococcus aureus, isolate 10—K1638, read-out: MIC): 0.5 µg/mL (≈ 0.534 µM)
MIC ([1]; Staphylococcus aureus, isolate 11—K1628, read-out: MIC): 0.25 µg/mL (≈ 0.267 µM)
MIC ([1]; Staphylococcus aureus, isolate 12—K1618, read-out: MIC): 0.5 µg/mL (≈ 0.534 µM)
MIC ([1]; Staphylococcus aureus, isolate 13—K1617, read-out: MIC): 0.25 µg/mL (≈ 0.267 µM)
MIC ([1]; Staphylococcus aureus, isolate 14—K1611, read-out: MIC): 0.25 µg/mL (≈ 0.267 µM)
MIC ([1]; Staphylococcus aureus, isolate 15—K1607, read-out: MIC): 0.25 µg/mL (≈ 0.267 µM)
MIC ([1]; Staphylococcus aureus, isolate 16—K1600, read-out: MIC): 0.25 µg/mL (≈ 0.267 µM)
MIC ([1]; Staphylococcus aureus, isolate 17—K1591, read-out: MIC): 0.25 µg/mL (≈ 0.267 µM)
MIC ([1]; Staphylococcus aureus, isolate 18—K1585, read-out: MIC): 0.25 µg/mL (≈ 0.267 µM)
MIC ([1]; Staphylococcus aureus, isolate 19—K1583, read-out: MIC): 0.25 µg/mL (≈ 0.267 µM)
MIC ([1]; Staphylococcus aureus, isolate 20—K1574, read-out: MIC): 0.25 µg/mL (≈ 0.267 µM)
MIC ([1]; Staphylococcus aureus, isolate 21—K1566, read-out: MIC): 0.25 µg/mL (≈ 0.267 µM)
MIC ([1]; Staphylococcus aureus, isolate 22—K1551, read-out: MIC): 0.25 µg/mL (≈ 0.267 µM)
MIC ([1]; Staphylococcus aureus, isolate 23—K1545, read-out: MIC): 0.25 µg/mL (≈ 0.267 µM)
MIC ([1]; Staphylococcus aureus, isolate 24—K1540, read-out: MIC): 0.25 µg/mL (≈ 0.267 µM)
MIC ([1]; Staphylococcus aureus, isolate 25—K1530, read-out: MIC): 0.25 µg/mL (≈ 0.267 µM)
MIC ([1]; Staphylococcus aureus, n=25 per group, read-out: Median MIC): 0.25 µg/mL (≈ 0.267 µM)
MIC50 ([1]; Staphylococcus aureus, 25 isolates, Summary of Results, read-out: MIC50): 0.25 µg/mL (≈ 0.267 µM)
MIC90 ([1]; Staphylococcus aureus, 25 isolates, Summary of Results, read-out: MIC90): 0.25 µg/mL (≈ 0.267 µM)
MIC ([1]; Staphylococcus aureus, 25 isolates, Summary of Results, read-out: Median MIC): 0.25 µg/mL (≈ 0.267 µM)
MIC50 ([1]; n=25 per group): 0.25 µg/mL (≈ 0.267 µM)
MIC90 ([1]; n=25 per group): 0.25 µg/mL (≈ 0.267 µM)
Range of MICs ([1]; n=25 per group): 0.125 to 0.5 µg/mL
MIC50 (Streptococcus pneumoniae; 25 isolates, Row 13): 1 µg/mL (≈ 1.07 µM)
MIC90 (Streptococcus pneumoniae; 25 isolates, Row 22): 2 µg/mL (≈ 2.13 µM)
Range of MICs (Streptococcus pneumoniae; 25 isolates, Summary of Results, >64 was Replaced with 128): 0.5 to 128 µg/mL
MIC (Streptococcus pneumoniae; Streptococcus pneumoniae, 25 ocular isolates, Mueller-Hinton broth with 2% lysed horse red blood cells, read-out: Median MIC): ≤ 4 µg/mL
MIC (Streptococcus pneumoniae; Streptococcus pneumoniae, isolate 1—B1386, read-out: MIC): > 64 µg/mL
MIC (Streptococcus pneumoniae; Streptococcus pneumoniae, isolate 2—B1380, read-out: MIC): 1 µg/mL (≈ 1.07 µM)
MIC (Streptococcus pneumoniae; Streptococcus pneumoniae, isolate 3—B1378, read-out: MIC): 1 µg/mL (≈ 1.07 µM)
MIC (Streptococcus pneumoniae; Streptococcus pneumoniae, isolate 4—B1377, read-out: MIC): 2 µg/mL (≈ 2.13 µM)
MIC (Streptococcus pneumoniae; Streptococcus pneumoniae, isolate 5—B1373, read-out: MIC): 1 µg/mL (≈ 1.07 µM)
MIC (Streptococcus pneumoniae; Streptococcus pneumoniae, isolate 6—B1367, read-out: MIC): 1 µg/mL (≈ 1.07 µM)
MIC (Streptococcus pneumoniae; Streptococcus pneumoniae, isolate 7—B1355, read-out: MIC): 2 µg/mL (≈ 2.13 µM)
MIC (Streptococcus pneumoniae; Streptococcus pneumoniae, isolate 8—B1353, read-out: MIC): 1 µg/mL (≈ 1.07 µM)
MIC (Streptococcus pneumoniae; Streptococcus pneumoniae, isolate 9—B1351, read-out: MIC): 1 µg/mL (≈ 1.07 µM)
MIC (Streptococcus pneumoniae; Streptococcus pneumoniae, isolate 10—B1339, read-out: MIC): 1 µg/mL (≈ 1.07 µM)
MIC (Streptococcus pneumoniae; Streptococcus pneumoniae, isolate 11—B1337, read-out: MIC): 0.5 µg/mL (≈ 0.534 µM)
MIC (Streptococcus pneumoniae; Streptococcus pneumoniae, isolate 12—B1335, read-out: MIC): 2 µg/mL (≈ 2.13 µM)
MIC (Streptococcus pneumoniae; Streptococcus pneumoniae, isolate 13—B1334, read-out: MIC): 1 µg/mL (≈ 1.07 µM)
MIC (Streptococcus pneumoniae; Streptococcus pneumoniae, isolate 14—B1333, read-out: MIC): 1 µg/mL (≈ 1.07 µM)
MIC (Streptococcus pneumoniae; Streptococcus pneumoniae, isolate 15—B1255, read-out: MIC): 0.5 µg/mL (≈ 0.534 µM)
MIC (Streptococcus pneumoniae; Streptococcus pneumoniae, isolate 16—B1288, read-out: MIC): 1 µg/mL (≈ 1.07 µM)
MIC (Streptococcus pneumoniae; Streptococcus pneumoniae, isolate 17—B1287, read-out: MIC): 1 µg/mL (≈ 1.07 µM)
MIC (Streptococcus pneumoniae; Streptococcus pneumoniae, isolate 18—B1272, read-out: MIC): 0.5 µg/mL (≈ 0.534 µM)
MIC (Streptococcus pneumoniae; Streptococcus pneumoniae, isolate 19—B1264, read-out: MIC): 0.5 µg/mL (≈ 0.534 µM)
MIC (Streptococcus pneumoniae; Streptococcus pneumoniae, isolate 20—B1252, read-out: MIC): 1 µg/mL (≈ 1.07 µM)
MIC (Streptococcus pneumoniae; Streptococcus pneumoniae, isolate 21—B1245, read-out: MIC): 0.5 µg/mL (≈ 0.534 µM)
MIC (Streptococcus pneumoniae; Streptococcus pneumoniae, isolate 22—B1211, read-out: MIC): 1 µg/mL (≈ 1.07 µM)
MIC (Streptococcus pneumoniae; Streptococcus pneumoniae, isolate 23—B1213, read-out: MIC): 1 µg/mL (≈ 1.07 µM)
MIC (Streptococcus pneumoniae; Streptococcus pneumoniae, isolate 24—B1208, read-out: MIC): 0.5 µg/mL (≈ 0.534 µM)
MIC (Streptococcus pneumoniae; Streptococcus pneumoniae, isolate 25—B1214, read-out: MIC): 1 µg/mL (≈ 1.07 µM)
MIC (Streptococcus pneumoniae; Streptococcus pneumoniae, n=25 per group, read-out: Median MIC): 1 µg/mL (≈ 1.07 µM)
MIC50 (Streptococcus pneumoniae; Streptococcus pneumoniae, 25 isolates, Summary of Results, read-out: MIC50): 1 µg/mL (≈ 1.07 µM)
MIC90 (Streptococcus pneumoniae; Streptococcus pneumoniae, 25 isolates, Summary of Results, read-out: MIC90): 2 µg/mL (≈ 2.13 µM)
MIC (Streptococcus pneumoniae; Streptococcus pneumoniae, 25 isolates, Summary of Results, read-out: Median MIC): 1 µg/mL (≈ 1.07 µM)
MIC50 (Streptococcus pneumoniae; n=25 per group): 1 µg/mL (≈ 1.07 µM)
MIC90 (Streptococcus pneumoniae; n=25 per group): 2 µg/mL (≈ 2.13 µM)
Range of MICs (Streptococcus pneumoniae; n=25 per group): 0.5 to 128 µg/mL
MIC (E. faecalis ATCC 29212): 0.78 µg/mL (≈ 0.833 µM)

Source: US20130065818A1, “Arylamide Compounds And Compositions And Uses Thereof” (POLYMEDIX, priority 2006, published 2013)
